# Experimental data from patent US12492403B2, “Aptamers and the use thereof in the treatment of cancer” (FUNDACIÓN PARA LA INVESTIGACIÓN BIOMÉDICA DEL HOSPITAL …, priority 2018, dated 2025).
# Assays:
# [1] = target: MNK1a (Homo sapiens, UniProt Q9BUB5); assay: ELONA binding of biotin-labeled aptamer
# Protocol: (§1) FIGS. 5A-5C. Characterization of the interaction of aptamer apMNKQ2 with MNK1 by means of ELONA. (A) ELONAs in which GST-MNKs previously adsorbed in 96-well plates at 0.2 μg/well (3 pmol/well) with apMNKQ2-Bio at 20 nM were incubated (FIG. 5A). The bars represent the mean±SEM of at least 3 independent experiments (*p<0.05, **p<0.01, and ***p<0.001 with respect to the blank and c p<0.05, b p<0.01, and a p<0.001 MNK1b with respect to MNK1a). ELONAs in which concentrations of 0 to 500 nM of apMNKQ2 were incubated (FIGS. 5A and 5C).
# (§2) To determine the binding of the aptamers to MNK1a or MNK1b, 200 ng of protein/well diluted in a coating solution (KPL, USA) in a final volume of 100 μL/well were added to a Maxisorp Nunc 96-well ELISA plate (ThermoFisher Scientific, USA). The plate was incubated overnight at 4° C. under stirring. Aptamers were then added at the corresponding concentration according to the assay, in a final volume of 100 μL/well of BSA-free aptamer buffer for 1 hour at 37° C. under stirring. All the aptamers used were labeled with biotin and had been previously denatured at 90° C. for 10 minutes and then kept at 4° C. for 10 minutes in the BSA-free aptamer buffer. To detect the binding of the aptamer to the protein, 100 μL/well of streptavidin-peroxidase (GE Healthcare, United Kingdom) diluted 1/1000 in the aptamer buffer at 37° C. for 1 hour under stirring were added. To develop the plate, 100 μL/well of ABTS solution (Roche, Switzerland) were added, and it was incubated in darkness at room temperature, with measurements being taken every 10 minutes at a wavelength of 405 nm in an Infinite F200 spectrophotometer (TECAN, Switzerland).
# [2] = target: MNK1aΔ77 (Homo sapiens, UniProt Q9BUB5); assay: ELONA binding of biotin-labeled aptamer; details: apMNKQ2-Bio at 20 nM, GST-MNK1aΔ77 0.2 μg/well
# Chain of MNK1aΔ77 (Q9BUB5 1-347 isoform Q9BUB5-2 limits assumed): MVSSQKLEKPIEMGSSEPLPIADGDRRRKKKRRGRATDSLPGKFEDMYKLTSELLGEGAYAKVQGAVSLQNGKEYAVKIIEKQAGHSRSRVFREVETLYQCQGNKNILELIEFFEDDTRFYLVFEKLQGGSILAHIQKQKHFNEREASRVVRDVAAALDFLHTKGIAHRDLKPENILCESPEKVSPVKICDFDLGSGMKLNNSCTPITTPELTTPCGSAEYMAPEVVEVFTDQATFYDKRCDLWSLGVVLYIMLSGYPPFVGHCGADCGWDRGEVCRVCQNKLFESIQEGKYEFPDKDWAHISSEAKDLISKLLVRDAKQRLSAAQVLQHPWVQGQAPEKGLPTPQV
# Protocol: as §1, §2
# [3] = target: MNK1b (Homo sapiens, UniProt Q9BUB5); assay: ELONA binding of biotin-labeled aptamer
# Chain of MNK1b (Q9BUB5 1-347 isoform Q9BUB5-3): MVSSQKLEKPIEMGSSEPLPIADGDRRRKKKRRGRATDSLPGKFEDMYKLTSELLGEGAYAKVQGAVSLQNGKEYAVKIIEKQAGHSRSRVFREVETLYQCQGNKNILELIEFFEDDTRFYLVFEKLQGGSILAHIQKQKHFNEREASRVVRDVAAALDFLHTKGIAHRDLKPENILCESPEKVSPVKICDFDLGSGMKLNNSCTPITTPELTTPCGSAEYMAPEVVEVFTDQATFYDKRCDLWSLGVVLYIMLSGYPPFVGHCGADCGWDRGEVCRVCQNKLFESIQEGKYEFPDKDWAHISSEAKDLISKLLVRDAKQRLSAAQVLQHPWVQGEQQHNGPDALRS
# Protocol: as §1, §2
# [4] = target: MNK1ΔCt (Homo sapiens, UniProt Q9BUB5); assay: ELONA binding of biotin-labeled aptamer; details: apMNKQ2-Bio at 20 nM, GST-MNK1ΔCt 0.2 μg/well
# Chain of MNK1ΔCt (Q9BUB5 1-335 isoform Q9BUB5-2 limits assumed): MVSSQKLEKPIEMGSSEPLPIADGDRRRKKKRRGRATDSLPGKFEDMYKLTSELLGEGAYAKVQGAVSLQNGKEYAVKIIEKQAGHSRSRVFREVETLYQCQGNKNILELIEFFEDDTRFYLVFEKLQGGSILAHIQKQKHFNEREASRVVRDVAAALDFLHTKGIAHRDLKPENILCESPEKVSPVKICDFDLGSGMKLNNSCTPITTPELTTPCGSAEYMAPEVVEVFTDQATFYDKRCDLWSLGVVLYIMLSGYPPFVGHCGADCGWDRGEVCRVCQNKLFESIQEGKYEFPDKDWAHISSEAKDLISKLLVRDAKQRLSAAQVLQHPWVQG
# Protocol: as §1, §2
# [5] = test system: orthotopic xenograft of 4T1 cells; assay: In vivo efficacy in metastatic orthotopic 4T1 mouse model; parameters: species or system BALBc mice; details: 3.6 mg/kg intravenously three times a week
# Protocol: FIG. 21A-21E. In vivo efficacy of apMNKQ2 in a mouse metastatic model with an orthotopic xenograft of 4T1 cells. (A) Effect of apMNKQ2 aptamer on the proliferation of 4T1 cells (mouse breast tumor line). 4T1 cells were seeded in p96 at a density of 1.5×10^3 cells/well. […] The graph (FIG. 21A) represents the means±SEM of 3 independent experiments. (B) Effect of apMNKQ2 aptamer on migration and invasion of 4T1 cells. Cells were seeded in p6 at a density of 2×10^5 cells/well and transfected with 500 nM apMNKQ2 at 24 hours. At 6 hours they were deprived of serum, and after 24 hours they were collected and re-seeded (4×10^4 cells/well) in a transwell […]. At 24 hours (migration) or 48 h (invasion), the transwell membranes were stained with Hoechst and the cells that had passed through the fluorescence microscopy were quantified. Values (FIG. 21B) represent the mean±SEM of 2-3 independent experiments. In vivo efficacy of apMNKQ2 in a mouse metastatic model with an orthotopic xenograft of 4T1 cells. (C) Evolution of mouse weight on the days of treatment with apMNKQ2 (FIG. 21C). (D) Relative tumor volume (RTV) throughout the days of treatment (FIG. 21D). (E) Number of lung metastases (FIG. 21E). The number of metastases is analyzed by the reverse staining method (with Chinese ink) and the metastases grouped according to their size in four groups (0.5, 1, 2 and >2). The stacked bars correspond to each group and represent the mean±SEM of 8-9 animals (*p<0.05 with respect to the control group).
# The anti-tumour activity and the effect on and spontaneous metastasis of aptamers in BALBc mice bearing ortothopically […] 4T1 breast tumours. […] As monitoring parameters, the tumor volume, assuming they are ellipsoids, and the weight of the animals were measured. […]
# To study the ability of apMNKQ2 to reduce metastasis in vivo, an orthotopic xenograft model with a murine tumor line of triple negative breast cancer, 4T1, was used. […] First, the effect of apMNKQ2 on 4T1 cells in vitro was analyzed. […]
# Chain of MNK1a (Q9BUB5 1-424 isoform Q9BUB5-2): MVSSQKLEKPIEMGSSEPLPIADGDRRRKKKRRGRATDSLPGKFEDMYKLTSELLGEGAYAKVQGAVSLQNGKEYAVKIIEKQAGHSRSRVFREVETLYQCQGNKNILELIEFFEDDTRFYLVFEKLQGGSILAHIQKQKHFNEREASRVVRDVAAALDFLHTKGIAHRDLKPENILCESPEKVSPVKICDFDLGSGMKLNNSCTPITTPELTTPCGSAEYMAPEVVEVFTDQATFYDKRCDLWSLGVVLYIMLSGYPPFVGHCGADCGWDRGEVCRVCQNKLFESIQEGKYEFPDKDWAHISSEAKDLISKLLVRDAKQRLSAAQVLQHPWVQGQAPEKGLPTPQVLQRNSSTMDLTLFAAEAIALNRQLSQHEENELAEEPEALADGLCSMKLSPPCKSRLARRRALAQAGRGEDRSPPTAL
substance,measurement,setting,value
"5′TGGGGTGGGCGGGCGGGGGTGGGGGTGGT-3′ (DNA, backbone and methylation of C not given here; further chemistry not fully specified) [apMNKQ2]",Kd,"[1]; ELONA, biotin-labeled aptamer 0 to 500 nM, GST-MNK1a",66.1 ± 20.2 nM
same,binding (ELONA),"[1]; apMNKQ2-Bio at 20 nM, GST-MNK1a 0.2 μg/well",binds significantly
same,binding (ELONA),[2],not significant
same,Kd,"[3]; ELONA, biotin-labeled aptamer 0 to 500 nM, GST-MNK1b",15.5 ± 2.36 nM
same,binding (ELONA),"[3]; apMNKQ2-Bio at 20 nM, GST-MNK1b 0.2 μg/well",binds significantly
same,affinity for MNK1b relative to MNK1a,[3]; from ELONA KD values,four-fold higher
same,binding (ELONA),[4],not significant
same,size of the tumors (relative tumor volume),[5]; 18 days,does not produce changes
same,weight of the mice,[5]; 18 days,does not produce changes
same,number of lung metastasis,[5]; statistically significant for metastasis of 2 mm,decreased
